According to article PMC10101059, “Rational Design of Stapled Antimicrobial Peptides to Enhance Stability and In Vivo Potency against Polymicrobial Sepsis” (Microbiology Spectrum, 2023):
In brackets after ≈: the same amount, converted by molar mass. Where two headings read alike, the source gives them in different places. Bridge positions count the residues as written; N and C are the ends. Square brackets hold non-standard residues; d marks the D form. Peptide text beside a SMILES is read from it. R5 = C=CCCC[C@@](C)(N)C(=O)O

What was measured:
A. baumannii = experiment: Bacterial killing kinetics; type: cell-based, Acinetobacter baumannii; details: at respective MBC
Procedure: Mid-log-phase A. baumannii (5 × 10^5 CFU/mL) bacterial cells were treated with the test candidates at appropriate bactericidal concentrations, followed by incubation at 37°C. The treated bacterial cells were plated in MHA to determine the bacterial killing rate as a function of time ([52]).

MDR A. baumannii 1033 [1] = experiment: Checkerboard microdilution assay (FICI); type: cell-based, Acinetobacter baumannii; details: for TP4-3 and meropenem combined MIC: MIC of each agent in combination
Procedure: (§1) The FICI was measured using a standard checkerboard microdilution assay ([57]). Two-fold dilutions of antibiotics were made across the x axis, and two-fold peptide dilutions were made across the y axis. Next, bacteria were added at 5 × 10^5 CFU/well (A. baumannii), followed by incubation at 37 ± 2°C for 16 to 20 h. FIC indices were calculated according to the following equations: FICI = FIC1 + FIC2; FIC1 = (MIC12 combined)/MIC1; FIC2 = (MIC12 combined)/MIC2. The combined efficacy was estimated as follows: FICI ≤ 0.5, synergistic; 0.5 to 1, additive; 1 to 2, indifferent; ≥2, antagonistic.

MDR A. baumannii 2998 = experiment: Checkerboard microdilution assay (FICI); type: cell-based, Acinetobacter baumannii; details: for TP4-3 and meropenem combined MIC: MIC of each agent in combination
Procedure: as §1

MDR A. baumannii 3618 = experiment: Checkerboard microdilution assay (FICI); type: cell-based, Acinetobacter baumannii; details: for TP4-3 and meropenem combined MIC: MIC of each agent in combination
Procedure: as §1

MDR A. baumannii 2088 [2] = experiment: Checkerboard microdilution assay (FICI); type: cell-based, Acinetobacter baumannii; details: for TP4-3 and meropenem combined MIC: MIC of each agent in combination
Procedure: as §1

MDR A. baumannii 2997 = experiment: Checkerboard microdilution assay (FICI); type: cell-based, Acinetobacter baumannii; details: for TP4-3 and meropenem combined MIC: MIC of each agent in combination
Procedure: as §1

MDR A. baumannii 1607 = experiment: microbe, parasite or virus in culture; type: cell-based, Acinetobacter baumannii; details: MDR 1607
Procedure: (§2) The antimicrobial assay was performed according to a modified National Committee for Clinical Laboratory Standards (NCCLS) protocol ([41], [42]). Briefly, 5 × 10^5 CFU/mL bacterial cells were treated with various peptide concentrations and incubated at 37 ± 2°C for 16 to 20 h. The lowest concentration with clear wells was recorded as the MIC for each test molecule. The clear wells were further plated in Mueller-Hinton agar (MHA) plates, followed by incubation overnight at 37 ± 2°C. After plating, the lowest concentration at which no growth was observed was recorded as the MBC. For the serum sensitivity assay, the antimicrobial activity of the peptides was tested in medium containing 50% human serum ([43], [44]).

MDR A. baumannii 1033 [3] = experiment: microbe, parasite or virus in culture; type: cell-based, Acinetobacter baumannii; details: MDR 1033
Procedure: as §2

MDR A. baumannii 2088 [4] = experiment: microbe, parasite or virus in culture; type: cell-based, Acinetobacter baumannii; details: MDR 2088; read-out: MBC
Procedure: as §2

MDR A. baumannii 1019 = experiment: microbe, parasite or virus in culture; type: cell-based, Acinetobacter baumannii; details: MDR 1019
Procedure: as §2

[5] = test system: NDM-1 Klebsiella pneumoniae; experiment: microbe, parasite or virus in culture; type: cell-based; details: NDM-1
Procedure: as §2

Pseudomonas aeruginosa = experiment: microbe, parasite or virus in culture; type: cell-based
Procedure: as §2

Escherichia coli = experiment: microbe, parasite or virus in culture; type: cell-based
Procedure: as §2

Enterobacter aerogenes = experiment: microbe, parasite or virus in culture; type: cell-based
Procedure: as §2

Acinetobacter baumannii = experiment: microbe, parasite or virus in culture; type: cell-based; details: for MBC: read-out: MBC; for MIC: read-out: MIC
Procedure: as §2, with “[44]). The antimicrobial assay was performed in the presence of physiological ions and glucose. The test media were supplemented with MgCl2 (1 mM), CaCl2 (2 mM), NaCl (150 mM), KCl (4.5 mM), NH4Cl (6 μM) ([45], [46]), or glucose (0.2%) ([47]), followed by routine antimicrobial assay as described previously. For the pH sensitivity assay, the antimicrobial assay was performed in media adjusted to pH values ranging from 4 to 12. To estimate the effects of temperature on antimicrobial activity, the peptide was incubated for 1 h at temperatures ranging from 40 to 100°C ([48]), followed by the antimicrobial assay as described above.” for “[44]).”

P. aeruginosae = experiment: microbe, parasite or virus in culture; type: cell-based, Pseudomonas aeruginosa; details: for TP4-3 and meropenem combined MIC: MIC of each agent in combination
NDM1 K. pneumoniae = experiment: microbe, parasite or virus in culture; type: cell-based, Klebsiella pneumoniae; details: for TP4-3 and meropenem combined MIC: MIC of each agent in combination
[6] = read-out: Single drug treatment MIC

`CC[C@H](C)[C@H](NC(=O)[C@@H](NC(=O)[C@@H](N)Cc1ccccc1)[C@@H](C)CC)C(=O)N[C@]1(C)CCCC=CCCC[C@](C)(C(=O)NCC(=O)N[C@@H](CC(C)C)C(=O)N[C@@H](Cc2ccccc2)C(=O)N[C@@H](CCCCN)C(=O)N[C@@H](CCCCN)C(=O)N[C@@H](CCCCN)C(=O)N[C@@H](C)C(=O)NCC(=O)N[C@@H](C)C(=O)N[C@]2(C)CCCC=CCCC[C@](C)(C(=O)N[C@H](C(=O)N[C@@H](CCCCN)C(=O)N[C@@H](CCCCN)C(=O)O)[C@@H](C)CC)NC(=O)[C@H](CCCCN)NC(=O)[C@H](CCCCN)NC(=O)[C@H](CCCCN)NC2=O)NC(=O)[C@H](CO)NC(=O)[C@H](CCCCN)NC(=O)[C@H](CCCCN)NC1=O` [TP4-3] (H-FII[R5]KKS[R5]GLFKKKAGA[R5]KKK[R5]IKK-OH; staple 4-8, 18-22; N-terminus and C-terminus assumed) was tested, and the “time to clear the entire bacterial load” value (A. baumannii) was ≤ 8 h, the “TP4-3 and meropenem combined MIC” value (MDR A. baumannii 1033 [1]; TP4-3 and D) was 3.13 µM and the “TP4-3 and meropenem combined MIC” value (MDR A. baumannii 1033 [1]; TP4-3 and M) was 3.13 µM. The MIC (MDR A. baumannii 1033 [1]; [6]) was 12.5 µM, the “TP4-3 and meropenem combined MIC” value (MDR A. baumannii 2998; TP4-3 and D) was 3.13 µM and the “TP4-3 and meropenem combined MIC” value (MDR A. baumannii 2998; TP4-3 and M) was 3.13 µM. For the same compound, the MIC (MDR A. baumannii 2998; [6]) was 6.25 µM, the “TP4-3 and meropenem combined MIC” value (MDR A. baumannii 3618; TP4-3 and D) was 3.13 µM and the “TP4-3 and meropenem combined MIC” value (MDR A. baumannii 3618; TP4-3 and M) was 3.13 µM. For the same compound, the MIC (MDR A. baumannii 3618; [6]) was 12.5 µM, the “TP4-3 and meropenem combined MIC” value (MDR A. baumannii 2088 [2]; TP4-3 and D) was 3.13 µM and the “TP4-3 and meropenem combined MIC” value (MDR A. baumannii 2088 [2]; TP4-3 and M) was 3.13 µM. For the same compound, the MIC (MDR A. baumannii 2088 [2]; [6]) was 6.25 µM, the “TP4-3 and meropenem combined MIC” value (MDR A. baumannii 2997; TP4-3 and D) was 3.13 µM and the “TP4-3 and meropenem combined MIC” value (MDR A. baumannii 2997; TP4-3 and M) was 3.13 µM. For the same compound, the MIC (MDR A. baumannii 2997; [6]) was 6.25 µM, the MIC (MDR A. baumannii 1607) was 6.25 µM (≈ 18.1 µg/mL) and the MBC (MDR A. baumannii 1607; read-out: MBC) was 12.5 µM (≈ 36.1 µg/mL). For the same compound, the MBC (MDR A. baumannii 1033 [3]) was 6.25 to 12.5 µM, the MIC (MDR A. baumannii 1033 [3]) was 6.25 to 12.5 µM and the MBC (MDR A. baumannii 2088 [4]) was 6.25 µM (≈ 18.1 µg/mL). The MBC (MDR A. baumannii 1019) was 12.5 µM (≈ 36.1 µg/mL), the MIC (MDR A. baumannii 1019) was 12.5 µM (≈ 36.1 µg/mL) and the MBC [5] was 25 µM (≈ 72.3 µg/mL). For the same compound, the MIC [5] was 25 µM (≈ 72.3 µg/mL), the MBC (Pseudomonas aeruginosa; read-out: MBC) was 25 µM (≈ 72.3 µg/mL) and the MIC (Pseudomonas aeruginosa; read-out: MIC) was 25 µM (≈ 72.3 µg/mL). The MBC (Escherichia coli) was 25 µM (≈ 72.3 µg/mL), the MIC (Escherichia coli) was 25 µM (≈ 72.3 µg/mL) and the MBC (Enterobacter aerogenes) was 25 µM (≈ 72.3 µg/mL). It also gave an MIC (Enterobacter aerogenes) of 25 µM (≈ 72.3 µg/mL), a reduction of activity (Acinetobacter baumannii; 12 h pretreatment in 50% human serum) of 2 fold and a reduction of activity (Acinetobacter baumannii; 24 h pre-incubation in 50% human serum) of 4 fold. The “reduction of activity (MBC)” value (Acinetobacter baumannii; in pH 6) was 4 fold, the lower bactericidal potency (Acinetobacter baumannii; media supplemented with CaCl2) was ≤ 8 fold and the lower bactericidal potency (Acinetobacter baumannii; media supplemented with MgCl2) was “up to 4 fold”. For the same compound, the “lowered bactericidal potency (MBC)” value (Acinetobacter baumannii; media supplemented with NaCl, KCl, or NH4Cl vs non-supplemented medium) was “up to 2 fold”, the MBC (Acinetobacter baumannii; pH 6) was 12.5 µM (≈ 36.1 µg/mL) and the MIC (Acinetobacter baumannii; pH 6) was 12.5 µM (≈ 36.1 µg/mL). The MBC (Acinetobacter baumannii; pH 7.4) was 3.13 µM (≈ 9.05 µg/mL), the MIC (Acinetobacter baumannii; pH 7.4) was 3.13 µM (≈ 9.05 µg/mL) and the MBC (Acinetobacter baumannii; pH 8) was 3.13 µM (≈ 9.05 µg/mL). The MIC (Acinetobacter baumannii; pH 8) was 3.13 µM (≈ 9.05 µg/mL), the MBC (Acinetobacter baumannii; pH 10) was 3.13 µM (≈ 9.05 µg/mL) and the MIC (Acinetobacter baumannii; pH 10) was 0.78 µM (≈ 2.25 µg/mL). The “TP4-3 and meropenem combined MIC” value (P. aeruginosae; TP4-3 and D) was 6.25 µM, the “TP4-3 and meropenem combined MIC” value (P. aeruginosae; TP4-3 and M) was 0.78 µM and the MIC (P. aeruginosae; [6]) was 25 µM (≈ 72.3 µg/mL). The “TP4-3 and meropenem combined MIC” value (NDM1 K. pneumoniae; TP4-3 and D) was 6.25 µM, the “TP4-3 and meropenem combined MIC” value (NDM1 K. pneumoniae; TP4-3 and M) was 6.25 µM and the MIC (NDM1 K. pneumoniae; NDM1, read-out: Single drug treatment MIC) was 25 µM (≈ 72.3 µg/mL).
